Measurements: PubChem BioAssay AID2060906 (Molecular Pharmacology Branch, DTP, NCI, 2025)
pIC50: −log10 of the molar value.

Test system: 485176-168-R4-J1-PDC complex spheroid growth
Test: Anticancer human tumor 485176-168-R4-J1-PDC patient-derived pancreatic adenocarcinoma cell line growth inhibition [RAS]
Conditions: for pIC50: curve of first compound; for viability, T/C: stronger effect = lower value; active = viability on the fitted dose curve at most 10% of control; inactive = the rest
In short: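 Agents were tested in combination matrices in half-log decrements from a top concentration at or near clinical Cmax (10 microM if undetermined). Targets were multi-cell spheroids of tumour lines plus HUVEC and MSC stromal cells.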

[1] = second compound 0.000949 µM, first compound 0.0316 µM
[2] = second compound 0.000949 µM, first compound 0.1 µM
[3] = second compound 0.000949 µM, first compound 0.316 µM
[4] = second compound 0.000949 µM, first compound 1 µM
[5] = second compound 0.000949 µM, first compound 3.16 µM
[6] = second compound 0.000949 µM, first compound 10 µM
[7] = second compound 0.003 µM, first compound 0.0316 µM
[8] = second compound 0.003 µM, first compound 0.1 µM
[9] = second compound 0.003 µM, first compound 0.316 µM
[10] = second compound 0.003 µM, first compound 1 µM
[11] = second compound 0.003 µM, first compound 3.16 µM
[12] = second compound 0.003 µM, first compound 10 µM
[13] = second compound 0.00949 µM, first compound 0.0316 µM
[14] = second compound 0.00949 µM, first compound 0.1 µM
[15] = second compound 0.00949 µM, first compound 0.316 µM
[16] = second compound 0.00949 µM, first compound 1 µM
[17] = second compound 0.00949 µM, first compound 3.16 µM
[18] = second compound 0.00949 µM, first compound 10 µM
[19] = second compound 0.03 µM, first compound 0.0316 µM
[20] = second compound 0.03 µM, first compound 0.1 µM
[21] = second compound 0.03 µM, first compound 0.316 µM
[22] = second compound 0.03 µM, first compound 1 µM
[23] = second compound 0.03 µM, first compound 3.16 µM
[24] = second compound 0.03 µM, first compound 10 µM
[25] = second compound 0.0949 µM, first compound 0.0316 µM
[26] = second compound 0.0949 µM, first compound 0.1 µM
[27] = second compound 0.0949 µM, first compound 0.316 µM
[28] = second compound 0.0949 µM, first compound 1 µM
[29] = second compound 0.0949 µM, first compound 3.16 µM
[30] = second compound 0.0949 µM, first compound 10 µM
[31] = second compound 0.3 µM, first compound 0.0316 µM
[32] = second compound 0.3 µM, first compound 0.1 µM
[33] = second compound 0.3 µM, first compound 0.316 µM
[34] = second compound 0.3 µM, first compound 1 µM
[35] = second compound 0.3 µM, first compound 3.16 µM
[36] = second compound 0.3 µM, first compound 10 µM
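Note: spheroids exposed to compounds for seven days before readout.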
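Throughout, for viability, T/C: luminescence viability expressed relative to DMSO vehicle wells set as 100%.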

Cc1nc(N2CCC3(CC2)COC(C)C3N)c(CO)nc1Sc1ccnc(N)c1Cl (stereo unspecified) + CCn1c(-c2cc(N3CCN(C)CC3)cnc2C(C)OC)c2c3cc(ccc31)-c1csc(n1)CC(NC(=O)C1CC1C)C(=O)N1CCCC(N1)C(=O)OCC(C)(C)C2
< 5.00: pIC50 (second compound 0.000949 µM) | pIC50 (second compound 0.003 µM) | pIC50 (second compound 0.00949 µM) | pIC50 (second compound 0.03 µM) | pIC50 (second compound 0.0949 µM) | pIC50 (second compound 0.3 µM)
inactive: viability, T/C [1] 90.6% | viability, T/C [2] 83.5% | viability, T/C [3] 84.1% | viability, T/C [4] 72.8% | viability, T/C [5] 77.5% | viability, T/C [6] 75.7% | viability, T/C [7] 82.7% | viability, T/C [8] 68.7% | viability, T/C [9] 87.8% | viability, T/C [10] 83.6% | viability, T/C [11] 83.8% | viability, T/C [12] 82.8% | viability, T/C [13] 94.3% | viability, T/C [14] 80.1% | viability, T/C [15] 80.4% | viability, T/C [16] 78.5% | viability, T/C [17] 77.2% | viability, T/C [18] 68% | viability, T/C [19] 77.1% | viability, T/C [20] 74.6% | viability, T/C [21] 94.7% | viability, T/C [22] 82.5% | viability, T/C [23] 90% | viability, T/C [24] 63.4% | viability, T/C [25] 85.2% | viability, T/C [26] 93.2% | viability, T/C [27] 59.9% | viability, T/C [28] 75% | viability, T/C [29] 80.7% | viability, T/C [30] 70.4% | viability, T/C [31] 78.8% | viability, T/C [32] 72.9% | viability, T/C [33] 63.2% | viability, T/C [34] 56.9% | viability, T/C [35] 76.5% | viability, T/C [36] 65.3%

NC1c2ccccc2OC12CCN(c1cnc3c(N4CCCc5ncccc54)n[nH]c3n1)CC2 (stereo unspecified) + CCn1c(-c2cc(N3CCN(C)CC3)cnc2C(C)OC)c2c3cc(ccc31)-c1csc(n1)CC(NC(=O)C1CC1C)C(=O)N1CCCC(N1)C(=O)OCC(C)(C)C2
inactive: viability, T/C [1] 86.4% | viability, T/C [2] 88.8% | viability, T/C [3] 97.4% | viability, T/C [4] 85% | viability, T/C [5] 89.2% | viability, T/C [6] 79.1% | viability, T/C [7] 93.1% | viability, T/C [8] 80.9% | viability, T/C [9] 76.7% | viability, T/C [10] 97.9% | viability, T/C [11] 91.8% | viability, T/C [12] 81.4% | viability, T/C [13] 81.7% | viability, T/C [14] 93.2% | viability, T/C [15] 76.2% | viability, T/C [16] 81.1% | viability, T/C [17] 81.9% | viability, T/C [18] 67.2% | viability, T/C [19] 83% | viability, T/C [20] 98% | viability, T/C [21] 83.4% | viability, T/C [22] 104% | viability, T/C [23] 91% | viability, T/C [24] 79% | viability, T/C [25] 80.8% | viability, T/C [26] 82% | viability, T/C [27] 76.9% | viability, T/C [28] 85.2% | viability, T/C [29] 100% | viability, T/C [30] 76.9% | viability, T/C [31] 87.4% | viability, T/C [32] 86.1% | viability, T/C [33] 69% | viability, T/C [34] 80.1% | viability, T/C [35] 83.1% | viability, T/C [36] 75.1%
< 5.00: pIC50 (second compound 0.000949 µM) | pIC50 (second compound 0.003 µM) | pIC50 (second compound 0.00949 µM) | pIC50 (second compound 0.03 µM) | pIC50 (second compound 0.0949 µM) | pIC50 (second compound 0.3 µM)

Nc1ccn(C2OC(CO)C(O)C2(F)F)c(=O)n1 (stereo unspecified) + CCn1c(-c2cc(N3CCN(C)CC3)cnc2C(C)OC)c2c3cc(ccc31)-c1csc(n1)CC(NC(=O)C1CC1C)C(=O)N1CCCC(N1)C(=O)OCC(C)(C)C2
7.84: pIC50 (second compound 0.0949 µM)
7.90: pIC50 (second compound 0.03 µM)
active: viability, T/C [8] 6.87% | viability, T/C [9] 8.05% | viability, T/C [10] 13.2% | viability, T/C [27] 11.3% | viability, T/C [28] 7.79%
7.76: pIC50 (second compound 0.003 µM)
7.72: pIC50 (second compound 0.3 µM)
7.74: pIC50 (second compound 0.00949 µM)
7.77: pIC50 (second compound 0.000949 µM)
inactive: viability, T/C (second compound 0.000949 µM, first compound 0.00316 µM) 100% | viability, T/C (second compound 0.000949 µM, first compound 0.01 µM) 73.4% | viability, T/C [1] 23.1% | viability, T/C [2] 9.57% | viability, T/C [3] 11.2% | viability, T/C [4] 11.5% | viability, T/C (second compound 0.003 µM, first compound 0.00316 µM) 94% | viability, T/C (second compound 0.003 µM, first compound 0.01 µM) 80.6% | viability, T/C [7] 17.1% | viability, T/C (second compound 0.00949 µM, first compound 0.00316 µM) 79.7% | viability, T/C (second compound 0.00949 µM, first compound 0.01 µM) 86.2% | viability, T/C [13] 19.7% | viability, T/C [14] 7.74% | viability, T/C [15] 10.7% | viability, T/C [16] 12% | viability, T/C (second compound 0.03 µM, first compound 0.00316 µM) 97.9% | viability, T/C (second compound 0.03 µM, first compound 0.01 µM) 58.2% | viability, T/C [19] 15.4% | viability, T/C [20] 12.6% | viability, T/C [21] 12.6% | viability, T/C [22] 11.5% | viability, T/C (second compound 0.0949 µM, first compound 0.00316 µM) 102% | viability, T/C (second compound 0.0949 µM, first compound 0.01 µM) 63.8% | viability, T/C [25] 20.7% | viability, T/C [26] 9.33% | viability, T/C (second compound 0.3 µM, first compound 0.00316 µM) 73% | viability, T/C (second compound 0.3 µM, first compound 0.01 µM) 80.2% | viability, T/C [31] 29.2% | viability, T/C [32] 9.97% | viability, T/C [33] 9.95% | viability, T/C [34] 11.2%
